Measurements: patent US20080280920A1, “Plasminogen Activator Inhibitor-1 Inhibitors” (priority 2005, published 2008)

Assays:
wildtype human PAI-1 = biological target: T1, wildtype human PAI-1 (Homo sapiens, UniProt P05121); test: PAI-1/uPA assay (residual uPA activity, fluorescent substrate SpectroFluor); assay type: biochemical; conditions: for Percent PAI-1 inhibition: at the concentration given, percent of activity of untreated PAI-1; for Conc. of compound required for PAI-1 inhibition: concentration giving the percent inhibition, 6 nM PAI-1, 8 nM uPA
T1 construct: purchased Molecular Innovations Lot# HWT-804
T1 sequence (P05121 24-402): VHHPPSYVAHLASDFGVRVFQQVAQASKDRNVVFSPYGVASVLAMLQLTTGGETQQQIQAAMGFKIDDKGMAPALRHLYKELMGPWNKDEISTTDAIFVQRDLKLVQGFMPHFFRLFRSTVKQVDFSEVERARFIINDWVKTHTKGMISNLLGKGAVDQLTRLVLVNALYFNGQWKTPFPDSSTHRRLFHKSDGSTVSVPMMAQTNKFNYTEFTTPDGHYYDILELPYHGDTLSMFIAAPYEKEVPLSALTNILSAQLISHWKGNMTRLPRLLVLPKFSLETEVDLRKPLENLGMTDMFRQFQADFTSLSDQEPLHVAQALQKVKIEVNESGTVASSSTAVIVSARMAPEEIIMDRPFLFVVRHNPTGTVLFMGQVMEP
Procedure, shortened: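 Wildtype human PAI-1 (6 nM) preincubated 15-20 min at RT with compound (10 nM to 100 μM final) in HEPES buffer pH 6.6, then with uPA (8 nM, HMW) 5 min. SpectroFluor (0.1 mM) cleavage followed 30 min at 37 °C (ex 360/em 440 nm); PAI-1 activity expressed as % of untreated PAI-1.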

[1] = tested on: 60 different human cancer cell lines; test: NCI in vitro anticancer screen (whole panel); assay type: cell-based; conditions: for growth and proliferation of human primary cancer cell-lines (in words): NCI screen, 48 h
SR = test: NCI anticancer screen, SR; assay type: cell-based, human; conditions: Leukemia, 48 h
EKVX = test: NCI anticancer screen, EKVX; assay type: cell-based, human; conditions: Non-Small Cell Lung, 48 h
HOP-92 = test: NCI anticancer screen, HOP-92; assay type: cell-based, human; conditions: HOP-92, Non-Small Cell Lung, 48 h
NCI-H23 = test: NCI anticancer screen, NCI-H23; assay type: cell-based, human; conditions: NCI-H23, Non-Small Cell Lung, 48 h
NCI-H322M = test: NCI anticancer screen, NCI-H322M; assay type: cell-based, human; conditions: Non-Small Cell Lung, 48 h
NCI-H460 = test: NCI anticancer screen, NCI-H460; assay type: cell-based, human; conditions: NCI-H460, Non-Small Cell Lung, 48 h
NCI-H522 = test: NCI anticancer screen, NCI-H522; assay type: cell-based, human; conditions: NCI-H522, Non-Small Cell Lung, 48 h
KM12 = test: NCI anticancer screen, KM12; assay type: cell-based, human; conditions: KM12, Colon, 48 h
SW-620 = test: NCI anticancer screen, SW-620; assay type: cell-based, human; conditions: SW-620, Colon, 48 h
SF-295 = test: NCI anticancer screen, SF-295; assay type: cell-based, human; conditions: SF-295, CNS, 48 h
SNB-19 = test: NCI anticancer screen, SNB-19; assay type: cell-based, human; conditions: SNB-19, CNS, 48 h
LOX IMVI = test: NCI anticancer screen, LOX IMVI; assay type: cell-based, human; conditions: Melanoma, 48 h
SK-MEL-2 = test: NCI anticancer screen, SK-MEL-2; assay type: cell-based, human; conditions: SK-MEL-2, Melanoma, 48 h
UACC-257 = test: NCI anticancer screen, UACC-257; assay type: cell-based, human; conditions: Homo sapiens; UACC-257, Melanoma, 48 h
IGR-OV1 = test: NCI anticancer screen, IGR-OV1; assay type: cell-based, human; conditions: IGR-OV1, Ovarian, 48 h
OVCAR-3 = test: NCI anticancer screen, OVCAR-3; assay type: cell-based, human; conditions: OVCAR-3, Ovarian, 48 h
ACHN = test: NCI anticancer screen, ACHN; assay type: cell-based, human; conditions: Renal, 48 h
TK-10 = test: NCI anticancer screen, TK-10; assay type: cell-based, human; conditions: TK-10, Renal, 48 h
UO-31 = test: NCI anticancer screen, UO-31; assay type: cell-based, human; conditions: UO-31, Renal, 48 h
DU-145 = test: NCI anticancer screen, DU-145; assay type: cell-based, human; conditions: DU-145, Prostate, 48 h
MDA-MB-231/ATCC = test: NCI anticancer screen, MDA-MB-231/ATCC; assay type: cell-based, human; conditions: Breast, 48 h
[2] = Homo sapiens, read-out: LC50 (the source's name)

## CC(C)(C)OC(=O)Nc1ccc(O)c(C(=O)NCCOC(=O)NCCNC(=O)c2cc(OCc3ccccc3)ccc2OCc2ccccc2)c1 [Compound Q012052, 2-[5-(BOC-amino)-2-hydroxybenzoylamino]ethyl 2-[2,5-bis-(benzyl-oxy)benzoylamino]ethylcarbamate]
Wildtype human PAI-1
  Percent PAI-1 inhibition: 45
  Conc. of compound required for PAI-1 inhibition: 0.05 µM
[1]
  growth and proliferation of human primary cancer cell-lines (in words): inhibited growth and proliferation
SR; Homo sapiens
  GI50: 89.8 µM
EKVX; Homo sapiens
  GI50: 35.1 µM
HOP-92; Homo sapiens
  GI50: 83.1 µM
NCI-H23; Homo sapiens
  GI50: > 100 µM
NCI-H322M; Homo sapiens
  GI50: > 100 µM
NCI-H460; Homo sapiens
  GI50: > 100 µM
NCI-H522; Homo sapiens
  GI50: 49.7 µM
KM12; Homo sapiens
  GI50: > 100 µM
SW-620; Homo sapiens
  GI50: > 100 µM
SF-295; Homo sapiens
  GI50: 21.9 µM
SNB-19; Homo sapiens
  GI50: > 100 µM
LOX IMVI; Homo sapiens
  GI50: > 100 µM
SK-MEL-2; Homo sapiens
  GI50: > 100 µM
UACC-257
  GI50: 15.6 µM
IGR-OV1; Homo sapiens, IGROV-1
  GI50: 25.3 µM
OVCAR-3; Homo sapiens
  GI50: > 100 µM
ACHN; Homo sapiens
  GI50: > 100 µM
TK-10; Homo sapiens
  GI50: > 100 µM
UO-31; Homo sapiens
  GI50: 19.9 µM
DU-145; Homo sapiens
  GI50: > 100 µM
MDA-MB-231/ATCC; Homo sapiens
  GI50: > 100 µM

## CCOC(=O)[C@H](Cc1ccccc1)NCc1cc(CN2CCN(c3ccccn3)CC2)c(O)c(OC)c1 [Compound Q012147T]
Wildtype human PAI-1; within the concentration range tested
  Conc. of compound required for PAI-1 inhibition (result in words): No inhibition
[1]
  growth and proliferation of human primary cancer cell-lines (in words): inhibited growth and proliferation
SR; Homo sapiens
  GI50: 0.32 µM
EKVX; Homo sapiens
  GI50: > 100 µM
HOP-92; Homo sapiens
  GI50: 24.8 µM
NCI-H23; Homo sapiens
  GI50: 55.9 µM
NCI-H322M; Homo sapiens
  GI50: 49.4 µM
NCI-H460; Homo sapiens
  GI50: 60.6 µM
NCI-H522; Homo sapiens
  GI50: 76.3 µM
KM12; Homo sapiens
  GI50: > 100 µM
SW-620; Homo sapiens
  GI50: > 100 µM
SF-295; Homo sapiens
  GI50: > 100 µM
SNB-19; Homo sapiens
  GI50: > 100 µM
LOX IMVI; Homo sapiens
  GI50: > 100 µM
SK-MEL-2; Homo sapiens
  GI50: > 100 µM
UACC-257
  GI50: 67.3 µM
IGR-OV1; Homo sapiens, IGROV-1
  GI50: > 100 µM
OVCAR-3; Homo sapiens
  GI50: 86.2 µM
ACHN; Homo sapiens
  GI50: 78.2 µM
TK-10; Homo sapiens
  GI50: 83 µM
UO-31; Homo sapiens
  GI50: 94.1 µM
DU-145; Homo sapiens
  GI50: > 100 µM
MDA-MB-231/ATCC; Homo sapiens
  GI50: > 100 µM

## CCOC(=O)c1ccc(CNCc2cc(CN3CCN(c4ccccn4)CC3)c(O)c(OC)c2)cc1 [Compound Q012135T]
Wildtype human PAI-1
  Percent PAI-1 inhibition: 8
  Conc. of compound required for PAI-1 inhibition: 100 µM
[1]
  growth and proliferation of human primary cancer cell-lines (in words): inhibited growth and proliferation
[1]; low micromolar concentrations, leukemia, melanoma, colon and central nervous system cell-lines
  cytostatic / cytotoxic effects on human cancer cell-lines (in words): cytostatic and cytotoxic effects
SR; Homo sapiens
  GI50: 4.18 µM
SR; [2]
  CC50: 4.18 µM
SR
  TGI: 20.6 µM
EKVX; Homo sapiens
  GI50: 21.3 µM
EKVX; [2]
  CC50: > 100 µM
EKVX
  TGI: 62.1 µM
HOP-92
  TGI: 31.8 µM
HOP-92; Homo sapiens
  GI50: 12.8 µM
  LC50 (concentration killing 50% of starting cells): 79.1 µM
NCI-H23; Homo sapiens
  GI50: 34.2 µM
NCI-H23; [2]
  CC50: > 100 µM
NCI-H23
  TGI: >100 µM
NCI-H322M; Homo sapiens
  GI50: 33.8 µM
NCI-H322M; [2]
  CC50: > 100 µM
NCI-H322M
  TGI: >100 µM
NCI-H460; Homo sapiens
  GI50: 20.2 µM
NCI-H460; [2]
  CC50: 70.4 µM
NCI-H460
  TGI: 37.7 µM
NCI-H522; Homo sapiens
  GI50: 15.5 µM
  LC50 (concentration killing 50% of cells): 81.7 µM
NCI-H522
  TGI: 35.6 µM
KM12; Homo sapiens
  GI50: 21 µM
KM12; [2]
  CC50: 73.3 µM
KM12
  TGI: 39.2 µM
SW-620; Homo sapiens
  GI50: 18.5 µM
SW-620; [2]
  CC50: 68 µM
SW-620
  TGI: 35.5 µM
SF-295; Homo sapiens
  GI50: 19.6 µM
SF-295; [2]
  CC50: 73.5 µM
SF-295
  TGI: 38.0 µM
SNB-19; Homo sapiens
  GI50: 33.1 µM
SNB-19; [2]
  CC50: > 100 µM
SNB-19
  TGI: >100 µM
LOX IMVI; Homo sapiens
  GI50: 15.8 µM
  LC50 (concentration giving 50% net cell kill): 63.4 µM
LOX IMVI
  TGI: 31.7 µM
SK-MEL-2; Homo sapiens
  GI50: 17.2 µM
SK-MEL-2; [2]
  CC50: 79.5 µM
SK-MEL-2
  TGI: 36.9 µM
IGR-OV1; Homo sapiens, IGROV-1
  GI50: 14.7 µM
IGR-OV1; Homo sapiens, IGROV-1, read-out: LC50 (the source's name)
  CC50: > 100 µM
IGR-OV1
  TGI: 43.4 µM
OVCAR-3; Homo sapiens
  GI50: 14.1 µM
OVCAR-3; [2]
  CC50: 61.2 µM
OVCAR-3
  TGI: 29.4 µM
ACHN; Homo sapiens
  GI50: 29.9 µM
ACHN; [2]
  CC50: > 100 µM
ACHN
  TGI: >100 µM
TK-10; Homo sapiens
  GI50: 20.6 µM
TK-10; [2]
  CC50: > 100 µM
TK-10
  TGI: 46.3 µM
UO-31; Homo sapiens
  GI50: 11.5 µM
UO-31; [2]
  CC50: 61.6 µM
UO-31
  TGI: 26.6 µM
DU-145
  TGI: 36.5 µM
DU-145; Homo sapiens
  GI50: 17 µM
DU-145; [2]
  CC50: 78.4 µM
MDA-MB-231/ATCC
  TGI: 38.1 µM
MDA-MB-231/ATCC; Homo sapiens
  GI50: 18.1 µM
MDA-MB-231/ATCC; [2]
  CC50: 80.5 µM
